Test results published in PubChem BioAssay (NCI).
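Each compound was tested at five concentrations against cells in 96-well plates for 48 hours. GI50 is the concentration that inhibits growth by half. TGI marks complete inhibition of growth.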

How the values were obtained:
Assay in all cases: NCI tumour cell line growth inhibition, 48 h
786-0 renal = system: 786-0 renal
A549 NSCLC = system: A549 NSCLC
CAKI-1 renal = system: CAKI-1 renal
CCRF-CEM leukemia = system: CCRF-CEM leukemia
COLO 205 colon = system: COLO 205 colon
DU-145 prostate = system: DU-145 prostate
EKVX NSCLC = system: EKVX NSCLC
HCC-2998 colon = system: HCC-2998 colon
HCT-15 colon = system: HCT-15 colon
HL-60(TB) leukemia = system: HL-60(TB) leukemia
HOP-62 NSCLC = system: HOP-62 NSCLC
HT29 colon = system: HT29 colon
IGROV1 ovarian = system: IGROV1 ovarian
K-562 leukemia = system: K-562 leukemia
KM12 colon = system: KM12 colon
LOX IMVI melanoma = system: LOX IMVI melanoma
M14 melanoma = system: M14 melanoma
MALME-3M melanoma = system: MALME-3M melanoma
MCF7 breast = system: MCF7 breast
MDA-MB-231 breast = system: MDA-MB-231 breast
MDA-N = system: MDA-N
MOLT-4 leukemia = system: MOLT-4 leukemia
NCI-H23 lung = system: NCI-H23 lung
OVCAR-8 ovarian = system: OVCAR-8 ovarian
PC-3 prostate = system: PC-3 prostate
RPMI-8226 leukemia = system: RPMI-8226 leukemia
RXF 393 renal = system: RXF 393 renal
SF-268 CNS = system: SF-268 CNS
SF-295 CNS = system: SF-295 CNS
SK-MEL-28 melanoma = system: SK-MEL-28 melanoma
SK-MEL-5 melanoma = system: SK-MEL-5 melanoma
SK-OV-3 ovarian = system: SK-OV-3 ovarian
SN12C renal = system: SN12C renal
SNB-75 CNS = system: SNB-75 CNS
SR leukemia = system: SR leukemia
SW-620 colon = system: SW-620 colon
T-47D breast = system: T-47D breast
TK-10 renal = system: TK-10 renal
UACC-257 melanoma = system: UACC-257 melanoma
UACC-62 melanoma = system: UACC-62 melanoma
A498 renal = system: A498 renal
ACHN renal = system: ACHN renal
BT-549 breast = system: BT-549 breast
HOP-92 NSCLC = system: HOP-92 NSCLC
HS 578T breast = system: HS 578T breast
MDA-MB-435 = system: MDA-MB-435
NCI-H226 lung = system: NCI-H226 lung
NCI-H460 lung = system: NCI-H460 lung
NCI-H522 lung = system: NCI-H522 lung
NCI/ADR-RES ovarian = system: NCI/ADR-RES ovarian
OVCAR-3 ovarian = system: OVCAR-3 ovarian
OVCAR-4 ovarian = system: OVCAR-4 ovarian
OVCAR-5 ovarian = system: OVCAR-5 ovarian
SF-539 CNS = system: SF-539 CNS
SK-MEL-2 melanoma = system: SK-MEL-2 melanoma
SNB-19 CNS = system: SNB-19 CNS
U251 CNS = system: U251 CNS
UO-31 renal = system: UO-31 renal

C/C(=C\CCC1=CC(=O)OC1)CC[C@@H]1[C@H]2C(=O)CC(C)[C@@]3(C)CC[C@]1(C)[C@@]23C (some centres not stated)
TGI (786-0 renal): > 10000 nM | TGI (A549 NSCLC): > 10000 nM | TGI (CAKI-1 renal): > 10000 nM | TGI (CCRF-CEM leukemia): > 10000 nM | TGI (COLO 205 colon): > 10000 nM | TGI (DU-145 prostate): > 10000 nM | TGI (EKVX NSCLC): > 10000 nM | TGI (HCC-2998 colon): > 10000 nM | TGI (HCT-15 colon): > 10000 nM | TGI (HL-60(TB) leukemia): > 10000 nM | TGI (HOP-62 NSCLC): > 10000 nM | TGI (HT29 colon): > 10000 nM | TGI (IGROV1 ovarian): > 10000 nM | TGI (K-562 leukemia): > 10000 nM | TGI (KM12 colon): > 10000 nM | TGI (LOX IMVI melanoma): > 10000 nM | TGI (M14 melanoma): > 10000 nM | TGI (MALME-3M melanoma): > 10000 nM | TGI (MCF7 breast): > 10000 nM | TGI (MDA-MB-231 breast): > 10000 nM | TGI (MDA-N): > 10000 nM | TGI (MOLT-4 leukemia): > 10000 nM | TGI (NCI-H23 lung): > 10000 nM | TGI (OVCAR-8 ovarian): > 10000 nM | TGI (PC-3 prostate): > 10000 nM | TGI (RPMI-8226 leukemia): > 10000 nM | TGI (RXF 393 renal): > 10000 nM | TGI (SF-268 CNS): > 10000 nM | TGI (SF-295 CNS): > 10000 nM | TGI (SK-MEL-28 melanoma): > 10000 nM | TGI (SK-MEL-5 melanoma): > 10000 nM | TGI (SK-OV-3 ovarian): > 10000 nM | TGI (SN12C renal): > 10000 nM | TGI (SNB-75 CNS): > 10000 nM | TGI (SR leukemia): > 10000 nM | TGI (SW-620 colon): > 10000 nM | TGI (T-47D breast): > 10000 nM | TGI (TK-10 renal): > 10000 nM | TGI (UACC-257 melanoma): > 10000 nM | TGI (UACC-62 melanoma): > 10000 nM

C=C(CNCCO)[C@@H]1CC[C@]2(CO)CC[C@]3(C)[C@H](CC[C@@H]4[C@@]5(C)CCC(NCCc6ccc(O)cc6)C(C)(C)[C@@H]5CC[C@]43C)[C@@H]12 (some centres not stated)
GI50 (786-0 renal): 202 nM | TGI (786-0 renal): 523 nM | GI50 (A498 renal): 1460 nM | TGI (A498 renal): 2810 nM | GI50 (A549 NSCLC): 1430 nM | TGI (A549 NSCLC): 2740 nM | GI50 (ACHN renal): 1690 nM | TGI (ACHN renal): 3080 nM | GI50 (BT-549 breast): 1550 nM | TGI (BT-549 breast): 3230 nM | GI50 (CAKI-1 renal): 1620 nM | TGI (CAKI-1 renal): 3330 nM | GI50 (CCRF-CEM leukemia): 500 nM | TGI (CCRF-CEM leukemia): 2680 nM | GI50 (COLO 205 colon): 194 nM | TGI (COLO 205 colon): 427 nM | GI50 (DU-145 prostate): 1600 nM | TGI (DU-145 prostate): 3030 nM | GI50 (EKVX NSCLC): 1460 nM | TGI (EKVX NSCLC): 3110 nM | GI50 (HCC-2998 colon): 355 nM | TGI (HCC-2998 colon): 1430 nM | GI50 (HCT-15 colon): 1360 nM | TGI (HCT-15 colon): 2820 nM | GI50 (HL-60(TB) leukemia): 2000 nM | TGI (HL-60(TB) leukemia): 4080 nM | GI50 (HOP-62 NSCLC): 1590 nM | TGI (HOP-62 NSCLC): 2990 nM | GI50 (HOP-92 NSCLC): 822 nM | TGI (HOP-92 NSCLC): 2290 nM | GI50 (HS 578T breast): 1490 nM | TGI (HS 578T breast): 3700 nM | GI50 (HT29 colon): 263 nM | TGI (HT29 colon): 763 nM | GI50 (IGROV1 ovarian): 1640 nM | TGI (IGROV1 ovarian): 3550 nM | GI50 (KM12 colon): 1390 nM | TGI (KM12 colon): 2920 nM | GI50 (LOX IMVI melanoma): 1180 nM | TGI (LOX IMVI melanoma): 2630 nM | GI50 (M14 melanoma): 187 nM | TGI (M14 melanoma): 398 nM | GI50 (MALME-3M melanoma): 1590 nM | TGI (MALME-3M melanoma): 3130 nM | GI50 (MCF7 breast): 339 nM | TGI (MCF7 breast): 1480 nM | GI50 (MDA-MB-231 breast): 854 nM | TGI (MDA-MB-231 breast): 2170 nM | GI50 (MDA-MB-435): 1510 nM | TGI (MDA-MB-435): 2900 nM | GI50 (MOLT-4 leukemia): 339 nM | TGI (MOLT-4 leukemia): 1360 nM | GI50 (NCI-H226 lung): 1690 nM | TGI (NCI-H226 lung): 3480 nM | GI50 (NCI-H23 lung): 1770 nM | TGI (NCI-H23 lung): 3450 nM | GI50 (NCI-H460 lung): 1180 nM | TGI (NCI-H460 lung): 2630 nM | GI50 (NCI-H522 lung): 1640 nM | TGI (NCI-H522 lung): 3130 nM | GI50 (NCI/ADR-RES ovarian): 2180 nM | TGI (NCI/ADR-RES ovarian): 5100 nM | GI50 (OVCAR-3 ovarian): 1820 nM | TGI (OVCAR-3 ovarian): 3730 nM | GI50 (OVCAR-4 ovarian): 1440 nM | TGI (OVCAR-4 ovarian): 3000 nM | GI50 (OVCAR-5 ovarian): 1700 nM | TGI (OVCAR-5 ovarian): 3290 nM | GI50 (OVCAR-8 ovarian): 1460 nM | TGI (OVCAR-8 ovarian): 2800 nM | GI50 (PC-3 prostate): 1380 nM | TGI (PC-3 prostate): 3070 nM | GI50 (RPMI-8226 leukemia): 1020 nM | TGI (RPMI-8226 leukemia): 3130 nM | GI50 (RXF 393 renal): 1080 nM | TGI (RXF 393 renal): 2390 nM | GI50 (SF-268 CNS): 1560 nM | TGI (SF-268 CNS): 3220 nM | GI50 (SF-295 CNS): 1510 nM | TGI (SF-295 CNS): 2960 nM | GI50 (SF-539 CNS): 1520 nM | TGI (SF-539 CNS): 2910 nM | GI50 (SK-MEL-2 melanoma): 1660 nM | TGI (SK-MEL-2 melanoma): 3180 nM | GI50 (SK-MEL-28 melanoma): 1600 nM | TGI (SK-MEL-28 melanoma): 3100 nM | GI50 (SK-MEL-5 melanoma): 1690 nM | TGI (SK-MEL-5 melanoma): 3130 nM | GI50 (SK-OV-3 ovarian): 1700 nM | TGI (SK-OV-3 ovarian): 3230 nM | GI50 (SN12C renal): 1690 nM | TGI (SN12C renal): 3190 nM | GI50 (SNB-19 CNS): 1600 nM | TGI (SNB-19 CNS): 3030 nM | GI50 (SNB-75 CNS): 1310 nM | TGI (SNB-75 CNS): 2630 nM | GI50 (SR leukemia): 250 nM | TGI (SR leukemia): 802 nM | GI50 (SW-620 colon): 468 nM | TGI (SW-620 colon): 1850 nM | GI50 (T-47D breast): 1740 nM | TGI (T-47D breast): 3550 nM | GI50 (TK-10 renal): 1660 nM | TGI (TK-10 renal): 3100 nM | GI50 (U251 CNS): 278 nM | TGI (U251 CNS): 717 nM | GI50 (UACC-257 melanoma): 1700 nM | TGI (UACC-257 melanoma): 3080 nM | GI50 (UACC-62 melanoma): 1750 nM | TGI (UACC-62 melanoma): 3240 nM | GI50 (UO-31 renal): 1510 nM | TGI (UO-31 renal): 2940 nM
